Results taken from PubChem BioAssay (NCI).
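GI50: concentration for 50% inhibition of growth. TGI is the concentration that stops growth completely.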

Columns and labels:
Experiment in all cases: NCI tumour cell line growth inhibition, 384-well format
HOP-92 NSCLC = test system: HOP-92 NSCLC
PC-3 prostate = test system: PC-3 prostate
SR leukemia = test system: SR leukemia
NCI-H23 lung = test system: NCI-H23 lung
RPMI-8226 leukemia = test system: RPMI-8226 leukemia
OVCAR-3 ovarian = test system: OVCAR-3 ovarian
SNB-19 CNS = test system: SNB-19 CNS
HL-60(TB) leukemia = test system: HL-60(TB) leukemia
MOLT-4 leukemia = test system: MOLT-4 leukemia
K-562 leukemia = test system: K-562 leukemia
CCRF-CEM leukemia = test system: CCRF-CEM leukemia
SN12C renal = test system: SN12C renal
786-0 renal = test system: 786-0 renal
A498 renal = test system: A498 renal
KM12 colon = test system: KM12 colon
HT29 colon = test system: HT29 colon
SK-MEL-28 melanoma = test system: SK-MEL-28 melanoma
A549 NSCLC = test system: A549 NSCLC
NCI-H226 lung = test system: NCI-H226 lung
IGROV1 ovarian = test system: IGROV1 ovarian
NCI/ADR-RES ovarian = test system: NCI/ADR-RES ovarian
MDA-MB-435 melanoma = test system: MDA-MB-435 melanoma
SK-MEL-5 melanoma = test system: SK-MEL-5 melanoma
MALME-3M melanoma = test system: MALME-3M melanoma
BT-549 breast = test system: BT-549 breast
CAKI-1 renal = test system: CAKI-1 renal
U251 glioblastoma = test system: U251 glioblastoma
SF-295 CNS = test system: SF-295 CNS
TK-10 renal = test system: TK-10 renal
MDA-MB-231 breast = test system: MDA-MB-231 breast
HOP-62 NSCLC = test system: HOP-62 NSCLC
NCI-H522 lung = test system: NCI-H522 lung
HCT-15 colon = test system: HCT-15 colon
COLO 205 colon = test system: COLO 205 colon
OVCAR-8 ovarian = test system: OVCAR-8 ovarian
UO-31 renal = test system: UO-31 renal
OVCAR-5 ovarian = test system: OVCAR-5 ovarian
RXF 393 renal = test system: RXF 393 renal
MCF7 breast = test system: MCF7 breast
UACC-257 melanoma = test system: UACC-257 melanoma
ACHN renal = test system: ACHN renal
DU-145 prostate = test system: DU-145 prostate
LOX IMVI melanoma = test system: LOX IMVI melanoma
NCI-H460 NSCLC = test system: NCI-H460 NSCLC
M14 melanoma = test system: M14 melanoma
HCC-2998 colon = test system: HCC-2998 colon
NCI-H322M lung = test system: NCI-H322M lung
HS 578T breast = test system: HS 578T breast
SW-620 colon = test system: SW-620 colon
SK-OV-3 ovarian = test system: SK-OV-3 ovarian
SNB-75 CNS = test system: SNB-75 CNS
SF-539 CNS = test system: SF-539 CNS
HCT-116 colon = test system: HCT-116 colon
OVCAR-4 ovarian = test system: OVCAR-4 ovarian
UACC-62 melanoma = test system: UACC-62 melanoma
SF-268 CNS = test system: SF-268 CNS
T-47D breast = test system: T-47D breast
EKVX NSCLC = test system: EKVX NSCLC
MDA-MB-468 breast = test system: MDA-MB-468 breast

**Q.** `Cc1cc(OCCOCCC(F)(F)P(=O)(O)O)ccc1CCc1cnc2c(N)nc3cc(CCC(=O)O)ccc3c2c1` was tested. Which GI50 (HOP-92 NSCLC) did it give?
**A.** > 100 µM

**Q.** And the TGI (HOP-92 NSCLC)?
**A.** > 100 µM

**Q.** What about the GI50 (PC-3 prostate) of the same molecule?
**A.** > 100 µM

**Q.** And the TGI (PC-3 prostate)?
**A.** > 100 µM

**Q.** And the GI50 (SR leukemia)?
**A.** 9.35 µM

**Q.** What about the TGI (SR leukemia) of the same molecule?
**A.** 29.3 µM

**Q.** And the GI50 (NCI-H23 lung)?
**A.** 7.12 µM

**Q.** What about the GI50 (RPMI-8226 leukemia) of the same molecule?
**A.** 99.7 µM

**Q.** What about the TGI (RPMI-8226 leukemia) of the same molecule?
**A.** > 100 µM

**Q.** What about the GI50 (OVCAR-3 ovarian) of the same molecule?
**A.** > 100 µM

**Q.** What about the TGI (OVCAR-3 ovarian) of the same molecule?
**A.** > 100 µM

**Q.** What about the GI50 (SNB-19 CNS) of the same molecule?
**A.** > 100 µM

**Q.** What about the TGI (SNB-19 CNS) of the same molecule?
**A.** > 100 µM

**Q.** And the GI50 (HL-60(TB) leukemia)?
**A.** > 100 µM

**Q.** What about the TGI (HL-60(TB) leukemia) of the same molecule?
**A.** > 100 µM

**Q.** And the GI50 (MOLT-4 leukemia)?
**A.** 58.1 µM

**Q.** What about the TGI (MOLT-4 leukemia) of the same molecule?
**A.** > 100 µM

**Q.** What about the GI50 (K-562 leukemia) of the same molecule?
**A.** 34.3 µM

**Q.** What about the TGI (K-562 leukemia) of the same molecule?
**A.** > 100 µM

**Q.** And the GI50 (CCRF-CEM leukemia)?
**A.** 37.7 µM

**Q.** And the TGI (CCRF-CEM leukemia)?
**A.** > 100 µM

**Q.** What about the GI50 (SN12C renal) of the same molecule?
**A.** > 100 µM

**Q.** What about the TGI (SN12C renal) of the same molecule?
**A.** > 100 µM

**Q.** Which results are given for `Nc1nc2cc(CC[C@H]3C[C@@H](n4ccc5c(N)ncnc54)[C@H](O)[C@@H]3O)ccc2cc1Br`?
**A.** GI50 ([…]-0 renal): 11.5 µM; TGI (786-0 renal): 23.7 µM; GI50 (A498 renal): 2.11 µM; TGI (A498 renal): 11.8 µM; GI50 (KM12 colon): 3.42 µM; TGI (KM12 colon): 20.7 µM; GI50 (HT29 colon): 1.85 µM; TGI (HT29 colon): 10.4 µM; GI50 (SK-MEL-28 melanoma): 18.2 µM; TGI (SK-MEL-28 melanoma): 32.2 µM; GI50 (A549 NSCLC): 0.644 µM; TGI (A549 NSCLC): 15.8 µM; GI50 (NCI-H226 lung): 1.62 µM; TGI (NCI-H226 lung): 15.5 µM; GI50 (IGROV1 ovarian): 6.55 µM; TGI (IGROV1 ovarian): 20.8 µM; GI50 (NCI/ADR-RES ovarian): 5.73 µM; TGI (NCI/ADR-RES ovarian): 18.6 µM; GI50 (HOP-92 NSCLC): 12.4 µM; TGI (HOP-92 NSCLC): 24.9 µM; GI50 (MDA-MB-435 melanoma): 12 µM; TGI (MDA-MB-435 melanoma): 24.5 µM; GI50 (SK-MEL-5 melanoma): 0.309 µM; TGI (SK-MEL-5 melanoma): 2.33 µM; GI50 (MALME-3M melanoma): 10.2 µM; TGI (MALME-3M melanoma): 21.9 µM; GI50 (BT-549 breast): 4.06 µM; TGI (BT-549 breast): 18.3 µM; GI50 (CAKI-1 renal): 11.5 µM; TGI (CAKI-1 renal): 23.9 µM; GI50 (U251 glioblastoma): 5.85 µM; TGI (U251 glioblastoma): 20.3 µM; GI50 (SF-295 CNS): 12.4 µM; TGI (SF-295 CNS): 25.2 µM; GI50 (TK-10 renal): 12.6 µM; TGI (TK-10 renal): 25.4 µM; GI50 (MDA-MB-231 breast): 3.2 µM; TGI (MDA-MB-231 breast): 20.5 µM; GI50 (PC-3 prostate): 11.4 µM; TGI (PC-3 prostate): 23.7 µM; GI50 (HOP-62 NSCLC): 0.37 µM; TGI (HOP-62 NSCLC): 12.1 µM; GI50 (NCI-H522 lung): 11 µM; TGI (NCI-H522 lung): 23 µM; GI50 (HCT-15 colon): 9.52 µM; TGI (HCT-15 colon): 21.8 µM; GI50 (COLO 205 colon): 4.18 µM; TGI (COLO 205 colon): 19.5 µM; GI50 (OVCAR-8 ovarian): 1.46 µM; TGI (OVCAR-8 ovarian): 14.3 µM; GI50 (UO-31 renal): 11.9 µM; TGI (UO-31 renal): 24.4 µM; GI50 (OVCAR-5 ovarian): 11.4 µM; TGI (OVCAR-5 ovarian): 23.8 µM; GI50 (NCI-H23 lung): 0.392 µM; TGI (NCI-H23 lung): 18.8 µM; GI50 (RPMI-8226 leukemia): 2.14 µM; TGI (RPMI-8226 leukemia): 15.4 µM; GI50 (RXF 393 renal): 0.246 µM; TGI (RXF 393 renal): 16.3 µM; GI50 (MCF7 breast): 0.983 µM; TGI (MCF7 breast): 15.8 µM; GI50 (UACC-257 melanoma): 1.42 µM; TGI (UACC-257 melanoma): 11.5 µM; GI50 (OVCAR-3 ovarian): 2.88 µM; TGI (OVCAR-3 ovarian): 13.8 µM; GI50 (SNB-19 CNS): 11.5 µM; TGI (SNB-19 CNS): 23.9 µM; GI50 (HL-60(TB) leukemia): 13.8 µM; TGI (HL-60(TB) leukemia): 27 µM; GI50 (ACHN renal): 13.4 µM; TGI (ACHN renal): 26.5 µM; GI50 (DU-145 prostate): 13.4 µM; TGI (DU-145 prostate): 26.5 µM; GI50 (LOX IMVI melanoma): 0.579 µM; TGI (LOX IMVI melanoma): 12.2 µM; GI50 (NCI-H460 NSCLC): < 0.01 µM; TGI (NCI-H460 NSCLC): 1.08 µM; GI50 (M14 melanoma): 10.6 µM; TGI (M14 melanoma): 22.5 µM; GI50 (HCC-2998 colon): 10.5 µM; TGI (HCC-2998 colon): 22.5 µM; GI50 (MOLT-4 leukemia): < 0.01 µM; GI50 (K-562 leukemia): 0.348 µM; TGI (K-562 leukemia): 15.5 µM; GI50 (NCI-H322M lung): 0.35 µM; TGI (NCI-H322M lung): 5.88 µM; GI50 (HS 578T breast): 11.7 µM; TGI (HS 578T breast): 24.1 µM; GI50 (SW-620 colon): 11.8 µM; TGI (SW-620 colon): 24.1 µM; GI50 (SK-OV-3 ovarian): 12 µM; TGI (SK-OV-3 ovarian): 24.5 µM; GI50 (SNB-75 CNS): 1.95 µM; TGI (SNB-75 CNS): 16.5 µM; GI50 (CCRF-CEM leukemia): 0.3 µM; TGI (CCRF-CEM leukemia): 10.4 µM; GI50 (SN12C renal): 11.5 µM; TGI (SN12C renal): 23.8 µM; GI50 (SF-539 CNS): 10.6 µM; TGI (SF-539 CNS): 22.5 µM; GI50 (HCT-116 colon): 1.66 µM; TGI (HCT-116 colon): 15.5 µM; GI50 (OVCAR-4 ovarian): 0.4 µM; TGI (OVCAR-4 ovarian): 19 µM; GI50 (UACC-62 melanoma): 11.5 µM; TGI (UACC-62 melanoma): 23.7 µM; GI50 (SF-268 CNS): < 0.01 µM; TGI (SF-268 CNS): 1.44 µM; GI50 (T-47D breast): < 0.01 µM; TGI (T-47D breast): 2.59 µM; GI50 (EKVX NSCLC): 1 µM; TGI (EKVX NSCLC): 16.4 µM; GI50 (MDA-MB-468 breast): 0.0253 µM; TGI (MDA-MB-468 breast): 0.433 µM
